Test results: US11458123B2 (Arvinas, Inc., priority 2016, dated 2022)

test system: tau protein; test: Tau protein in vitro degradation assay (Western blot, Tau-13 antibody); type: cell-based, human; details: SK-N-SH cells; 72 hours of incubation; tested at 300 nM, 100 nM, 33 nM and 11 nM; Western blot, Tau-13 antibody
In short: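 Tau degradation read by Tau-13 Western blot (detects all human tau forms) of SDS-PAGE-resolved lysates from SK-N-SH cells. Cells were plated at least 18 h before 72 h exposure to PROTACs at either 1000/300/100 nM or 300/100/33/11 nM.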

| SMILES | Degradation activity* (highest amount of degradation observed at any dosage; tau protein remaining) |
| --- | --- |
| Cn1c2ccncc2c2ccc(-c3ccc(OCCOCCOCCOCCOCCOCCOc4ccc5c(c4)C(=O)N(C4CCC(=O)NC4=O)C5=O)nc3)cc21 (stereo not shown) [Compound 131, 2-(2,6-dioxopiperidin-3-yl)-5-((17-((5-(5-methyl-5H-pyrido[4,3-b]indol-7-yl)pyridin-2-yl)oxy)-3,6,9,12,15-pentaoxaheptadecyl)oxy)isoindoline-1,3-dione] | A (≤50% tau protein remaining after 72 hours of incubation with the test compound) |
| Cn1c2ccncc2c2ccc(-c3ccc(OCCOCCOCCOCCOCCOCCOCCOc4ccc5c(c4)C(=O)N(C4CCC(=O)NC4=O)C5=O)nc3)cc21 (stereo not shown) [Compound 132, 2-(2,6-dioxopiperidin-3-yl)-5-((20-((5-(5-methyl-5H-pyrido[4,3-b]indol-7-yl)pyridin-2-yl)oxy)-3,6,9,12,15,18-hexaoxaicosyl)oxy)isoindoline-1,3-dione] | A (≤50% tau protein remaining after 72 hours of incubation with the test compound) |
| Cn1c2ccncc2c2ccc(-c3ccc(OCCCCCOCCCCCCC4CN(c5ccc6c(c5)C(=O)N(C5CCC(=O)NC5=O)C6=O)C4)nc3)cc21 (stereo not shown) [Compound 133, 2-(2,6-dioxopiperidin-3-yl)-5-(3-(6-((5-((5-(5-methyl-5H-pyrido[4,3-b]indol-7-yl)pyridin-2-yl)oxy)pentyl)oxy)hexyl)azetidin-1-yl)isoindoline-1,3-dione] | A (≤50% tau protein remaining after 72 hours of incubation with the test compound) |
| Cn1c2ccncc2c2ccc(-c3ccc(O[C@H]4C[C@H](Oc5ccc(C#CCCCCOc6ccc7c(c6)C(=O)N(C6CCC(=O)NC6=O)C7=O)nn5)C4)nc3)cc21 (stereo partly shown) [Compound 134, 2-(2,6-dioxopiperidin-3-yl)-5-((6-(6-((1r,3r)-3-((5-(5-methyl-5H-pyrido[4,3-b]indol-7-yl)pyridin-2-yl)oxy)cyclobutoxy)pyridazin-3-yl)hex-5-yn-1-yl)oxy)isoindoline-1,3-dione] | B (≤80% and >50% tau protein remaining after 72 hours of incubation with the test compound) |
| Cn1c2ccncc2c2ccc(-c3ccc(O[C@H]4C[C@H](CN5CC6(CC(OCCCCOc7ccc8c(c7)C(=O)N(C7CCC(=O)NC7=O)C8=O)C6)C5)C4)nc3)cc21 (stereo partly shown) [Compound 135, 2-(2,6-dioxopiperidin-3-yl)-5-(4-((2-(((1r,3r)-3-((5-(5-methyl-5H-pyrido[4,3-b]indol-7-yl)pyridin-2-yl)oxy)cyclobutyl)methyl)-2-azaspiro[3.3]heptan-6-yl)oxy)butoxy)isoindoline-1,3-dione] | B (≤80% and >50% tau protein remaining after 72 hours of incubation with the test compound) |
| Cn1c2ccncc2c2ccc(-c3ccc(O[C@H]4C[C@@H](C(=O)N5CC6(CC(OCCCCOc7ccc8c(c7)C(=O)N(C7CCC(=O)NC7=O)C8=O)C6)C5)C4)nc3)cc21 (stereo partly shown) [Compound 136, 2-(2,6-dioxopiperidin-3-yl)-5-(4-((2-((1 s,3 s)-3-((5-(5-methyl-5H-pyrido[4,3-b]indol-7-yl)pyridin-2-yl)oxy)cyclobutane-1-carbonyl)-2-azaspiro[3.3]heptan-6-yl)oxy)butoxy)isoindoline-1,3-dione] | C (>80% tau protein remaining after 72 hours of incubation with the test compound) |
| Cn1c2ccncc2c2ccc(-c3ccc(O[C@H]4C[C@H](N(C)C5CC6(C5)CN(C(=O)CCCCOc5ccc7c(c5)C(=O)N(C5CCC(=O)NC5=O)C7=O)C6)C4)nc3)cc21 (stereo partly shown) [Compound 137, 2-(2,6-dioxopiperidin-3-yl)-5-((5-(6-(methyl((1r,3r)-3-((5-(5-methyl-5H-pyrido[4,3-b]indol-7-yl)pyridin-2-yl)oxy)cyclobutyl)amino)-2-azaspiro[3.3]heptan-2-yl)-5-oxopentyl)oxy)isoindoline-1,3-dione] | C (>80% tau protein remaining after 72 hours of incubation with the test compound) |
| O=C1CCC(N2C(=O)c3ccc(OCCOCCOCCOCCOCCOc4ccc(-c5ccc6c7cnccc7n(C(F)F)c6c5)cn4)cc3C2=O)C(=O)N1 (stereo not shown) [Compound 138, 5-((14-((5-(5-(difluoromethyl)-5H-pyrido[4,3-b]indol-7-yl)pyridin-2-yl)oxy)-3,6,9,12-tetraoxatetradecyl)oxy)-2-(2,6-dioxopiperidin-3-yl)isoindoline-1,3-dione] | B (≤80% and >50% tau protein remaining after 72 hours of incubation with the test compound) |
| Cn1c2ccncc2c2ccc(-c3cnc(OCCOCCOCCOCCOCCOc4ccc5c(c4)C(=O)N(C4CCC(=O)NC4=O)C5=O)c(F)c3)cc21 (stereo not shown) [Compound 139, 2-(2,6-dioxopiperidin-3-yl)-5-((14-((3-fluoro-5-(5-methyl-5H-pyrido[4,3-b]indol-7-yl)pyridin-2-yl)oxy)-3,6,9,12-tetraoxatetradecyl)oxy)isoindoline-1,3-dione] | B (≤80% and >50% tau protein remaining after 72 hours of incubation with the test compound) |
| Cc1cc(-c2ccc3c4cnccc4n(C)c3c2)cnc1OCCOCCOCCOCCOCCOc1ccc2c(c1)C(=O)N(C1CCC(=O)NC1=O)C2=O (stereo not shown) [Compound 140, 2-(2,6-dioxopiperidin-3-yl)-5-((14-((3-methyl-5-(5-methyl-5H-pyrido[4,3-b]indol-7-yl)pyridin-2-yl)oxy)-3,6,9,12-tetraoxatetradecyl)oxy)isoindoline-1,3-dione] | A (≤50% tau protein remaining after 72 hours of incubation with the test compound) |
| Cn1c2ccncc2c2ccc(-c3ccc(O[C@H]4C[C@H](Oc5cnc(C#CCCCCOc6ccc7c(c6)C(=O)N(C6CCC(=O)NC6=O)C7=O)nc5)C4)nc3)cc21 (stereo partly shown) [Compound 141, 2-(2,6-dioxopiperidin-3-yl)-5-((6-(5-((1r,3r)-3-((5-(5-methyl-5H-pyrido[4,3-b]indol-7-yl)pyridin-2-yl)oxy)cyclobutoxy)pyrimidin-2-yl)hex-5-yn-1-yl)oxy)isoindoline-1,3-dione] | C (>80% tau protein remaining after 72 hours of incubation with the test compound) |
| Cn1c2ccncc2c2ccc(-c3cnc(O[C@H]4C[C@H](Oc5ccc(C#CCN6CC(Oc7ccc8c(c7)C(=O)N(C7CCC(=O)NC7=O)C8=O)C6)nc5)C4)c(C(F)(F)F)c3)cc21 (stereo partly shown) [Compound 142, 2-(2,6-dioxopiperidin-3-yl)-5-((1-(3-(5-((1r,3r)-3-((5-(5-methyl-5H-pyrido[4,3-b]indol-7-yl)-3-(trifluoromethyl)pyridin-2-yl)oxy)cyclobutoxy)pyridin-2-yl)prop-2-yn-1-yl)azetidin-3-yl)oxy)isoindoline-1,3-dione] | C (>80% tau protein remaining after 72 hours of incubation with the test compound) |
| Cn1c2ccncc2c2ccc(-c3ccc(OCCOCCOCCOCCOCCOc4ccc5c(c4)C(=O)N(C4CCC(=O)NC4=O)C5=O)nc3C(F)(F)F)cc21 (stereo not shown) [Compound 143, 2-(2,6-dioxopiperidin-3-yl)-5-((14-((5-(5-methyl-5H-pyrido[4,3-b]indol-7-yl)-6-(trifluoromethyl)pyridin-2-yl)oxy)-3,6,9,12-tetraoxatetradecyl)oxy)isoindoline-1,3-dione] | B (≤80% and >50% tau protein remaining after 72 hours of incubation with the test compound) |
